Patent publication US20080161340A1, “Tetrahydroquinilinones, tetrahydronaphthyridones and derivatives thereof” (priority 2006, published 2008)

What was measured:
Type in all cases: cell-based
[1] = target: T1, hCB1 (Homo sapiens, UniProt P21554); assay: cAMP assay (LANCE TR-FRET) in CHO-K1 cells stably expressing hCB1, agonist/inverse agonist; conditions: intracellular cAMP, CHO-K1 hCB1 cells prestimulated with NKH-477, + agonist, − inverse agonist; for EC50: read-out: hCB1 EC50 class
T1 construct: host or cells: CHO-K1
Experimental: (§1) The ability of compounds to act as agonists or inverse agonists at human CB2 and CB1 receptors (hCB2, hCB1, respectively) was determined by measuring changes in intracellular cAMP levels. Chinese Hamster Ovary (CHO-K1) cell lines stably expressing hCB2 (Genebank: X74328) or hCB1 (Genebank: X54937) were purchased from Euroscreen (Gosselies, Belgium).
(§2) Cell lines were grown in suspension in EX-CELL 302 CHO Serum-free medium (Sigma, cat #14324C) supplemented with 1% Fetal Bovine Serum, glutamine and non-essential amino-acids under 0.4 mg/mL G418 selection.
(§3) Receptor mediated responses were determined by measuring changes in intracellular cAMP using LANCE cAMP detection kit (cat #AD0264, PerkinElmer, Wellesley, Mass.) based on time-resolved fluorescence resonance energy transfer (TR-FRET). Changes in cAMP were determined in cells pre-incubated with IBMX (isobutyl methylxanthine) and prestimulated with NKH-477 (a water soluble forskolin derivative, cat #1603, Tocris, Ellisville, Mo.) to increase basal cAMP levels as detailed below.
(§4) On the day of the experiment, cells were spun at low speed for 5 min at room temperature. The supernatant was removed and cells were resuspended in stimulation buffer (Hanks Buffered Salt Solution/5 mM HEPES, containing 0.5 mM IBMX (cat #17018, Sigma) and 0.02% BSA (PerkinElmer, cat #CR84-100)). Cell clumps were removed by filtering through cell strainer 40 μm (BD Falcon, Discovery Labware, Bedford, Mass.) and diluted to 2×10^5 cells/mL. Antibody supplied with the LANCE cAMP immunoassay kit was then added according to the manufacturer's instructions. An aliquot of cells was taken for un-induced controls. To the remaining cells was added NKH-477 (a water soluble forskolin derivative, Tocris cat #1603) to a final concentration of 2-8 μM. Cells were then incubated for 30 min at room temperature prior to adding to Proxiplates containing test compounds (final DMSO concentration was less than 0.5%) with a Multidrop bulk dispenser, followed by a sixty minute incubation at room temperature. The response was stopped by addition of the detection mix supplied with the LANCE kit.
(§5) The reagents were allowed to equilibrate for three hours prior to reading on an Envision multi-mode detector (PerkinElmer). TR-FRET was measured using a 330-380 nm excitation filter, a 665 nm emission filter, dichroic mirror 380 nm and Z=1 mm.
(§6) Cyclic AMP concentrations in each well were back-calculated from a cAMP standard curve run concurrently during each assay. Each plate contained 16 wells of forskolin stimulated cells and 16 wells of forskolin plus CP55,940-treated. CP55,940-treated cells were treated with CP55,940 (Tocris cat. # 0949) at 1 μm and the maximal response was used as the full range (100%) standard. WIN55,212 (Tocris cat. # 1038) was used as an internal standard. Concentrations of cAMP were expressed as a percent of the difference of these two groups of wells. Concentration-response data including ECso (the concentration of compound producing 50% of the maximal response) and intrinsic activity (the percent maximal activation compared to full activation by CP55,940) were determined using a four-parameter non-linear regression algorithm (Xlfit equation 251, IDBS).

[2] = target: T2, rCB2 (Rattus norvegicus, UniProt Q9QZN9); assay: cAMP assay, rCB2 in Table 7, agonist/inverse agonist; conditions: intracellular cAMP; + agonist, − inverse agonist
T2 sequence (Q9QZN9 1-360): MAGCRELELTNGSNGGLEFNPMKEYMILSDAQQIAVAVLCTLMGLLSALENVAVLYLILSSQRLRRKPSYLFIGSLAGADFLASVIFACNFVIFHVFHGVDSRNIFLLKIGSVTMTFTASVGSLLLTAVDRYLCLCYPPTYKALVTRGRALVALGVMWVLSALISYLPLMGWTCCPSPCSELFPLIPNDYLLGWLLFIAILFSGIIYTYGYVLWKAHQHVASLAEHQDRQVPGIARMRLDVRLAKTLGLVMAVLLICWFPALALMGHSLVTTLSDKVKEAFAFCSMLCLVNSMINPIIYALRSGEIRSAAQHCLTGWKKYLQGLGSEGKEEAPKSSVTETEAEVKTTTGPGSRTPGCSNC
Experimental: as §3, §4, §5, §6

[3] = target: T3, hCB2 (Homo sapiens, UniProt P34972); assay: cAMP assay (LANCE TR-FRET) in CHO-K1 cells stably expressing hCB2, agonist/inverse agonist; conditions: intracellular cAMP, CHO-K1 hCB2 cells prestimulated with NKH-477; + agonist, − inverse agonist
T3 construct: host or cells: CHO-K1
Experimental: as §1, §2, §3, §4, §5, §6

T3 sequence (P34972 whole entry): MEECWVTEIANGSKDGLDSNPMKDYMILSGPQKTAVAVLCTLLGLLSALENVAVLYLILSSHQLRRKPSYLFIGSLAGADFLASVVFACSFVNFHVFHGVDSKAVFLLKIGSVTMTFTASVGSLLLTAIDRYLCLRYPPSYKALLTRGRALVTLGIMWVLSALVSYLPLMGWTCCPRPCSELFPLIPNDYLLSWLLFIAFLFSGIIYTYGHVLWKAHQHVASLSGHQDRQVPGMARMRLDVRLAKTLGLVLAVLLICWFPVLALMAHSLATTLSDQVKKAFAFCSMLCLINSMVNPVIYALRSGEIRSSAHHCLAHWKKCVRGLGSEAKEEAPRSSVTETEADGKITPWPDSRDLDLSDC
T1 sequence (P21554 whole entry): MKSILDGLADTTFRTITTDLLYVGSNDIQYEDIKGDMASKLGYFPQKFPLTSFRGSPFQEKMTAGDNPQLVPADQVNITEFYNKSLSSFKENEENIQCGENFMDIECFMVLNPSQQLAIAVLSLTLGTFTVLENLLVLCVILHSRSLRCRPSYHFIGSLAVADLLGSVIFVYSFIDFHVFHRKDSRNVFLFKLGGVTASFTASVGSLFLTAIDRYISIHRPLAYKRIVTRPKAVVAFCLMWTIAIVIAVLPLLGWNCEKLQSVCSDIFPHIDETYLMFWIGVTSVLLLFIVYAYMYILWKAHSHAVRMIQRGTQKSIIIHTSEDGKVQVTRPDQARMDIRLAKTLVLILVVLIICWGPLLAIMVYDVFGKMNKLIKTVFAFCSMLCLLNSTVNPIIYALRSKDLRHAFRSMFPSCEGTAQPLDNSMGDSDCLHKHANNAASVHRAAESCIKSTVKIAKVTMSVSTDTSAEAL

CC(C)CS(=O)(=O)N1CCc2c(cc(-c3cccc(Cl)c3)c(=O)n2CC2CC2)C1 [Compound 50, 3-(3-chlorophenyl)-1-(cyclopropylmethyl)-6-(isobutylsulfonyl)-5,6,7,8-tetrahydro-1,6-naphthyridin-2(1H)-one]
hCB1 EC50 class [1]: −B | rCB2 EC50 class [2]: −B | hCB2 EC50 class [3]: +C

COc1cccc(-c2cc3c(n(CC4CCC4)c2=O)CCN(S(C)(=O)=O)C3)c1 [Compound 52, 1-(cyclobutylmethyl)-3-(3-methoxyphenyl)-6-(methylsulfonyl)-5,6,7,8-tetrahydro-1,6-naphthyridin-2(1H)-one]
EC50 [1]: > 10 µM | rCB2 EC50 class [2]: +A | hCB2 EC50 class [3]: +B

CS(=O)(=O)N1CCc2c(cc(-c3ccccc3F)c(=O)n2CC2CCC2)C1 [Compound 53, 1-(cyclobutylmethyl)-3-(2-fluorophenyl)-6-(methylsulfonyl)-5,6,7,8-tetrahydro-1,6-naphthyridin-2(1H)-one]
EC50 [1]: > 10 µM | rCB2 EC50 class [2]: +A | hCB2 EC50 class [3]: +A

CC(=O)N1CCc2c(cc(-c3ccccc3F)c(=O)n2CC2CCC2)C1 [Compound 54, 6-acetyl-1-(cyclobutylmethyl)-3-(2-fluorophenyl)-5,6,7,8-tetrahydro-1,6-naphthyridin-2(1H)-one]
EC50 [1]: > 10 µM | rCB2 EC50 class [2]: +A | hCB2 EC50 class [3]: +B

CS(=O)(=O)N1CCc2c(cc(Cc3ccccc3F)c(=O)n2CC2CCC2)C1 [Compound 58, 1-(cyclobutylmethyl)-3-(2-fluorobenzyl)-6-(methylsulfonyl)-5,6,7,8-tetrahydro-1,6-naphthyridin-2(1H)-one]
hCB1 EC50 class [1]: +B | rCB2 EC50 class [2]: +A | hCB2 EC50 class [3]: +A
